Measured values as given in publication PMC12630027, “RALGEF inhibitors suppress RAS-driven pancreatic cancer and metastasis” (The Journal of Biological Chemistry, 2025).

How the values were obtained:
[1] = biological target: T1, full-length RALGDS recombinant protein (Homo sapiens, UniProt Q12967); assay: analytical ultracentrifugation; type: binding
T1 construct: full length, purified recombinant, purchased from Genscript Biotech
T1 sequence (Q12967 1-914): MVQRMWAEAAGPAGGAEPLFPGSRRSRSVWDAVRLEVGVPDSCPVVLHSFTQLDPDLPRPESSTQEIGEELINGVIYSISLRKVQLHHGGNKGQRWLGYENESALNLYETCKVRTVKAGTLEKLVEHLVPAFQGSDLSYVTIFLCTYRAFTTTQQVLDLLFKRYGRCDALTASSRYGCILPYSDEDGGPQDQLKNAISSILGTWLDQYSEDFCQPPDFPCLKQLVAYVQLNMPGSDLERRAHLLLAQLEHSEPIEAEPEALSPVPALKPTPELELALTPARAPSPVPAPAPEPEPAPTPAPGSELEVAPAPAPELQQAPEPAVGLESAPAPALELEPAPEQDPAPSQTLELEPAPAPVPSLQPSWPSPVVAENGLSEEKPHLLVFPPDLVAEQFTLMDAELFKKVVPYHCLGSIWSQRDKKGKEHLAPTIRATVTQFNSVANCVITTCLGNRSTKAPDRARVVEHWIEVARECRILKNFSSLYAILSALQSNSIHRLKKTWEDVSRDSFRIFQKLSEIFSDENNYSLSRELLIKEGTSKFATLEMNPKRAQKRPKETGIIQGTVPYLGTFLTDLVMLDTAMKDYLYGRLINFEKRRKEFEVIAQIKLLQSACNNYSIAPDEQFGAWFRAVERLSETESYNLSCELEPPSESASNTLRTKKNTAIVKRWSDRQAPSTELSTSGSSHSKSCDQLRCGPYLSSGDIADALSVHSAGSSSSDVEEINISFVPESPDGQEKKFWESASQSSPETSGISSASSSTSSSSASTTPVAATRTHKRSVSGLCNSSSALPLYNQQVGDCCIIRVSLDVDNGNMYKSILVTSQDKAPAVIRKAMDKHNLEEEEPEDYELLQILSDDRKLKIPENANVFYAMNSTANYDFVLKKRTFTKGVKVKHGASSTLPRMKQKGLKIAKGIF

RGL3 = biological target: T2, RGL3 (Homo sapiens, UniProt Q3MIN7); assay: co-immunoprecipitation of H-RAS12V from mixed HEK-293 lysates, Western blot; type: biochemical; conditions: 20 μM (figure legend; 10 μM in methods), HA-H-RAS12V partner, pH 7.5, room temperature; inhibition of RAS/RALGEF complex
T2 construct: Flag-tagged, construct purchased from Genscript, expressed in HEK-293, lysate

GFP-tagged RALGDS = biological target: T3, GFP-tagged RALGDS (Homo sapiens, UniProt Q12967); assay: as above; type: biochemical; conditions: 20 μM (figure legend; 10 μM in methods), HA-H-RAS12V partner, pH 7.5, room temperature; inhibition of RAS/RALGEF complex
T3 construct: full length, GFP-tagged, plasmid gift of CJ Der, expressed in HEK-293, lysate

[2] = biological target: T4, isolated RA domain of RALGDS; assay: microscale thermophoresis, one-site model; conditions: 50 nM fluorescently labelled RALGDS RA domain, 5% DMSO; average of four experiments; compound solubility may have compromised the assay; read-out: binding affinity
T4 construct: isolated RAS association (RA) domain, C-terminal; fluorescently labelled
Description: microscale thermophoresis, one-site model on isolated RA domain of RALGDS | obtained binding affinities in the low μM range

RGL2 (also known as Rlf) = biological target: T5, RGL2 (also known as Rlf) (Homo sapiens, UniProt O15211); assay: co-immunoprecipitation of H-RAS12V from mixed HEK-293 lysates, Western blot; type: biochemical; conditions: 20 μM (figure legend; 10 μM in methods), HA-H-RAS12V partner, pH 7.5, room temperature; inhibition of RAS/RALGEF complex
T5 construct: full length, GFP-tagged, plasmid gift of CJ Der, expressed in HEK-293, lysate

## COc1cccc(CNc2nc(CNCc3cccc(F)c3)nc3sc(C)c(C)c23)c1 [C4-180]
[1]
  Kd: ~1000 nM
RGL3
  co-immunoprecipitation of H-RAS12V from mixed HEK-293 lysates, Western blot: C4-180 could act on RALGDS, RGL2 and RGL3 family members
GFP-tagged RALGDS
  co-immunoprecipitation of H-RAS12V from mixed HEK-293 lysates, Western blot: C4-180 was noticably better at suppressing the interaction of RAS with RALGDS and RGL2
[2]
  Kd: 2550 nM
RGL2 (also known as Rlf)
  co-immunoprecipitation of H-RAS12V from mixed HEK-293 lysates, Western blot: C4-180 was noticably better at suppressing the interaction of RAS with RALGDS and RGL2

## COc1cccc(CNc2nc(CN(C)Cc3cccc(OC)c3)nc3sc(C)c(C)c23)c1 [C4]
GFP-tagged RALGDS
  co-immunoprecipitation of H-RAS12V from mixed HEK-293 lysates, Western blot: The complex formation was suppressed.
RGL2 (also known as Rlf)
  co-immunoprecipitation of H-RAS12V from mixed HEK-293 lysates, Western blot: The complex formation was suppressed.
